Test results published in US4416885A, “Use of isopropylaminopyrimidine in the chemotherapy of muscular dystrophy, myopathy and myotonia” (priority 1982, dated 1983).

Key:
Format in all cases: in vivo, chicken
[1] = system: dystrophic New Hampshire chickens, line 413; assay: Toxicity (weight change, other symptoms) in dystrophic chickens
[2] = system: dystrophic New Hampshire chickens, line 413; assay: Wing apposition (WA) measurements
Method: The compound IAPP was tested on dystrophic New Hampshire chickens, line 413, and Imperial College (London, England) sub-line of the original Davis, University of California strain. The chickens are homozygous for muscular dystrophy, the disease appearing with 100% incidence.
This can be defined as the minimum separation in cm to which the two wing tips can be passively raised, providing a measure of the characteristic loss is flexibility of the wing muscle-tendon system. The test is performed once weekly. In dystrophic birds, WA changes after the first three weeks of life from 0 cm (wings raised and touching) to about 18 cm at 3 months (wings stiff and can barely be raised). The normal controls maintain a score of 0 cm throughout. […]
(§1) Finally, oral therapy with IAPP was undertaken at gradually increasing dosages up to 1 g/Kg/day. The parameters (physical, biochemical and histological) measured previously were again used to test the efficacy of the drug; five different dosages were used orally, each being given for 30-60 days, daily (Tables VII-XI). A total of 75 animals were treated in the current study with IAPP and 70 control animals were used.

[3] = system: plasma PK (pyruvate kinase); assay: Plasma PK
Method: (§2) Chemotherapy was assessed by application of seven different parameters: physical tests of muscular disability, namely the flip test and wing apposition (W.A.) measurements; biochemical assays of serum and muscle enzume levels of creatine phosphokinase (CPK), pyruvate kinase (PK) and acetylcholinesterase (AChE); and histological comparisons of treated and untreated muscle. Toxicity studies (weight loss, etc.) were also used. A very comprehensive profile of the drug was thus obtained which related to all the known, highly characteristic features of the disease which are applicable to both the animal model and the human.
A massive rise in this enzyme level also occurs in the dystrophic chicken compared to the normal control, as it does in the human disease.
The drug was administered daily in water, injected intra-peritoneally, the amount being adjusted on a weekly basis according to the animal's weight.
as §1

dystrophic chickens 413 = assay: Experiment 4, flip test (25 flips), dystrophic chickens
Method: All chickens were injected with 50 mg/Kg IAPP and weighed approximately every second or third day.
B, C, D: Experimental-injected with 50 mg/Kg IAPP

[4] = system: plasma AChE (acetylcholinesterase); assay: Plasma AChE; design: AChE: unit not given here
Method: as §2
The elevation of this enzyme in the dystrophic chicken occurs from 8 days and reaches a plateau at 100 days, compared to the normal animal where the levels continue to decline slowly. […]
as §1

[5] = 200 mg/Kg i.p. daily for 30 days, day 28 ex ovo
[6] = 200 mg/Kg i.p. daily for 30 days, day 56 ex ovo
[7] = 200 mg/Kg i.p. daily for 30 days, day 84 ex ovo
[8] = 300 mg/Kg i.p. daily for 30 days, day 28 ex ovo
[9] = 300 mg/Kg i.p. daily for 30 days, day 56 ex ovo
[10] = 300 mg/Kg i.p. daily for 30 days, day 84 ex ovo
[11] = 300 mg/Kg i.p. three times weekly for 30 days, day 84 ex ovo
[12] = Exp. 2, 40 mg/Kg i.p. daily, day 42-48
[13] = Table VII, oral 200 mg/Kg, 60 days, day 28 ex ovo
[14] = Table VII, oral 200 mg/Kg, 60 days, day 35 ex ovo
[15] = oral 300 mg/Kg daily, day 28 ex ovo
[16] = oral 300 mg/Kg daily, day 35 ex ovo
[17] = oral 450 mg/Kg daily for 45 days, day 35 ex ovo
[18] = oral 450 mg/Kg daily for 45 days, day 50 ex ovo
[19] = oral 600 mg/Kg daily, day 35 ex ovo
[20] = oral 600 mg/Kg daily, day 50 ex ovo
[21] = oral 1 g/Kg daily, day 28 ex ovo
[22] = oral 1 g/Kg daily, day 35 ex ovo
[23] = 200 mg/Kg i.p. daily for 30 days, day 45 ex ovo
[24] = 300 mg/Kg i.p. daily for 30 days, day 45 ex ovo
[25] = 300 mg/Kg i.p. three times weekly for 30 days, day 45 ex ovo
[26] = oral 450 mg/Kg daily for 45 days, day 28 ex ovo
[27] = oral 600 mg/Kg daily, day 28 ex ovo

CC(C)Nc1ncccn1.O=P(O)(O)O [IAPP, 2-isopropylaminopyrimidine orthophosphate]
Maximum Weight Loss ([1]; 300 mg/Kg i.p. three times weekly for 30 days): 17% | Weight loss / toxic symptoms ([1]; initial single injection 50 mg/Kg, over 7 days): no weight loss over 7 days, nor any other toxic symptoms | Maximum Weight Loss ([1]; oral 600 mg/Kg daily): 4% | Maximum weight loss, reduction from control values ([1]; oral therapy, all doses): 7% | WA, treated ([2]; 200 mg/Kg i.p. daily for 30 days, day 28 ex ovo, control 0.4): 1.0 cm | WA, treated ([2]; 200 mg/Kg i.p. daily for 30 days, day 45 ex ovo, control 0.6): 1.5 cm | WA, treated ([2]; 200 mg/Kg i.p. daily for 30 days, day 84 ex ovo, control 8.3): 8.6 cm | WA, treated ([2]; 300 mg/Kg i.p. daily for 30 days, day 28 ex ovo, control 0.4): 0.3 cm | WA, treated ([2]; 300 mg/Kg i.p. daily for 30 days, day 45 ex ovo, control 0.6): 1.6 cm | WA, treated ([2]; 300 mg/Kg i.p. daily for 30 days, day 84 ex ovo, control 9.3): 14.4 cm | WA, treated ([2]; 300 mg/Kg i.p. three times weekly for 30 days, day 28 ex ovo, control 0.4): 0.3 cm | WA, treated ([2]; 300 mg/Kg i.p. three times weekly for 30 days, day 45 ex ovo, control 0.6): 2.0 cm | WA, treated ([2]; 300 mg/Kg i.p. three times weekly for 30 days, day 84 ex ovo, control 8.3): 11.1 cm | WA, treated ([2]; Exp. 2, 40 mg/Kg i.p. daily, day 7-13, control 0): 0 cm | WA, treated ([2]; Exp. 2, 40 mg/Kg i.p. daily, day 14-20, control 0): 0 cm | WA, treated ([2]; Exp. 2, 40 mg/Kg i.p. daily, day 21-27, control 0): 0 cm | WA, treated ([2]; Exp. 2, 40 mg/Kg i.p. daily, day 28-34, control 0): 0 cm | WA, treated ([2]; Exp. 2, 40 mg/Kg i.p. daily, day 35-41, control 2.1): 0 cm | WA, treated ([2]; Exp. 2, 40 mg/Kg i.p. daily, day 42-48, control 4.7): 2.3 cm | WA, treated ([2]; Exp. 2, 40 mg/Kg i.p. daily, day 56-62, control 5.7): 2.9 cm | WA, treated ([2]; Exp. 2, 40 mg/Kg i.p. daily, day 63-71, control 7.5): 6.1 cm | WA, treated ([2]; Exp. 3, 70 mg/Kg i.p. daily, day 14-20, control 0): 0 cm | WA, treated ([2]; Exp. 3, 70 mg/Kg i.p. daily, day 21-27, control 0): 0 cm | WA, treated ([2]; Exp. 3, 70 mg/Kg i.p. daily, day 28-34, control 0): 0 cm | WA, treated ([2]; Table VII, oral 200 mg/Kg, 60 days, day 28 ex ovo, control 0.8): 0.8 cm | WA, treated ([2]; Table VII, oral 200 mg/Kg, 60 days, day 35 ex ovo, control 1.2): 2.5 cm | WA, treated ([2]; Table VII, oral 200 mg/Kg, 60 days, day 45 ex ovo, control 3.4): 4.3 cm | WA, treated ([2]; Table VII, oral 200 mg/Kg, 60 days, day 60 ex ovo, control 9.6): 10.7 cm | WA, treated ([2]; oral 300 mg/Kg daily, day 28 ex ovo, control 1.6): 1.4 cm | WA, treated ([2]; oral 300 mg/Kg daily, day 35 ex ovo, control 1.3): 4.5 cm | WA, treated ([2]; oral 450 mg/Kg daily for 45 days, day 28 ex ovo, control 0.2): 0.7 cm | WA, treated ([2]; oral 450 mg/Kg daily for 45 days, day 35 ex ovo, control 2.8): 1.9 cm | WA, treated ([2]; oral 450 mg/Kg daily for 45 days, day 45 ex ovo, control 5.5): 5.8 cm | WA, treated ([2]; oral 450 mg/Kg daily for 45 days, day 50 ex ovo, control 6.2): 7.6 cm | WA, treated ([2]; oral 600 mg/Kg daily, day 28 ex ovo, control 0.2): 0.3 cm | WA, treated ([2]; oral 600 mg/Kg daily, day 35 ex ovo, control 2.8): 1.1 cm | WA, treated ([2]; oral 600 mg/Kg daily, day 45 ex ovo, control 5.5): 3.5 cm | WA, treated ([2]; oral 600 mg/Kg daily, day 50 ex ovo, control 6.2): 5.5 cm | PK [3, 5]: 377 | PK, % change from control [3, 5]: -47% | PK [3, 6]: 1612 | PK, % change from control [3, 6]: -45% | PK [3, 7]: 2949 | PK, % change from control [3, 7]: -36% | PK [3, 8]: 429 | PK, % change from control [3, 8]: -40% | PK [3, 9]: 2447 | PK, % change from control [3, 9]: -16% | PK [3, 10]: 5282 | PK, % change from control [3, 10]: +15% | PK, % change from control ([3]; 300 mg/Kg i.p. three times weekly for 30 days, day 28 ex ovo): -30% | PK ([3]; 300 mg/Kg i.p. three times weekly for 30 days, day 56 ex ovo): 2486 | PK [3, 11]: 3766 | PK, % change from control [3, 11]: -18% | % PK Change vs untreated dystrophic controls ([3]; Exp. 2, 40 mg/Kg i.p. daily, day 14-20): -38% | % PK Change vs untreated dystrophic controls ([3]; Exp. 2, 40 mg/Kg i.p. daily, day 21-27): -57% | % PK Change vs untreated dystrophic controls ([3]; Exp. 2, 40 mg/Kg i.p. daily, day 28-34): -60% | % PK Change vs untreated dystrophic controls ([3]; Exp. 2, 40 mg/Kg i.p. daily, day 35-41): -48% | % PK Change vs untreated dystrophic controls [3, 12]: -58% | % PK Change vs untreated dystrophic controls ([3]; Exp. 2, 40 mg/Kg i.p. daily, day 56-62): -42% | % PK Change vs untreated dystrophic controls ([3]; Exp. 2, 40 mg/Kg i.p. daily, day 63-71): -41% | % PK Change vs untreated dystrophic controls ([3]; Exp. 3, 70 mg/Kg i.p. daily, day 21-27): -32% | % PK Change vs untreated dystrophic controls ([3]; Exp. 3, 70 mg/Kg i.p. daily, day 28-34): -65% | PK [3, 13]: 1925 | PK, % change from control [3, 13]: -4% | PK [3, 14]: 2150 | PK, % change from control [3, 14]: +6% | PK [3, 15]: 2010 | PK, % change from control [3, 15]: +1% | PK [3, 16]: 907 | PK, % change from control [3, 16]: +28% | PK [3, 17]: 2520 | PK, % change from control [3, 17]: +0.6% | PK [3, 18]: 3891 | PK, % change from control [3, 18]: +7% | PK [3, 19]: 1639 | PK, % change from control [3, 19]: -36% | PK [3, 20]: 2824 | PK, % change from control [3, 20]: -22% | PK [3, 21]: 1080 | PK, % change from control [3, 21]: -48% | PK [3, 22]: 1812 | PK, % change from control [3, 22]: -50% | Number of flips at which animal fatigued (dystrophic chickens 413; 413D experimental animal, day 25, 50 mg/Kg): 19 flips | Flip test outcome (dystrophic chickens 413; dystrophic drug injected chickens, 50 mg/Kg): able to pass the flip test | AChE [4, 23]: 60.4 | AChE, % change from control [4, 23]: -29% | AChE [4, 7]: 87 | AChE, % change from control [4, 7]: -46% | AChE [4, 24]: 48.4 | AChE, % change from control [4, 24]: -43% | AChE [4, 25]: 62.9 | AChE, % change from control [4, 25]: -27% | AChE [4, 11]: 90 | AChE, % change from control [4, 11]: -45% | % AChE Change vs untreated dystrophic controls [4, 12]: -55% | AChE [4, 14]: 77.8 | AChE, % change from control [4, 14]: -6% | AChE [4, 26]: 520 | AChE, % change from control [4, 26]: -12% | AChE [4, 27]: 46.9 | AChE, % change from control [4, 27]: -21% | AChE [4, 22]: 53.9 | AChE, % change from control [4, 22]: -47%
